Measured values reported in US9855268B2, “Triazolo[4,5-d]pyrimidine derivatives” (Merck Patent GmbH, priority 2013, dated 2018).
Structures can show the parent of a compound that is named as a salt.

These molecules were tested against GCN2 (Homo sapiens, UniProt Q9P2K8) (assay: GCN2 enzyme assay (TR-FRET Lanthascreen, GFP-eIF2alpha phosphorylation)). Conditions: 10 μM ATP, 80 nM GFP-eIF2a, 30 nM GCN2.
Assay type: biochemical
Source text: GCN2: Assay Principle & Conditions
This assay can quantificate the activity of the serin kinase GCN2 (general control non-derepressible-2).
This kinase is involved in the stress metabolism of cells. It is activated upon starvation (amino acid depletion). Its natural substrate is eIF2a (eukaryotic initiation factor 2 alpha subunit), a translation factor, which gets activated (phosphorylated) by GCN2 in case of an amino acid bottleneck in the cells. This in turn leads to a halt of the protein synthesis. Inhibition of GCN2 results in stopping this mechanism: The cell can not stop protein production upon “starvation” stress.
The assay is run in two steps: the enzymatic reaction and the detection step. In the first step GCN2 is incubated with 10 μM ATP and 80 nM of the GFP-labelled substrate eIF2alpha at room temperature.
The enzymatic reaction is stopped by addition of EDTA. The amount of phosphorylated eIF2alpha is determined by TR-FRET (Lanthascreen): A complex is formed consisting of antibody and GFP labelled phospho-eIF2a, which allows a FRET upon exitation at 340 nm.
Final Concentrations in the Enzymatic Reaction

Sequence of GCN2 (Q9P2K8 whole entry, species assumed): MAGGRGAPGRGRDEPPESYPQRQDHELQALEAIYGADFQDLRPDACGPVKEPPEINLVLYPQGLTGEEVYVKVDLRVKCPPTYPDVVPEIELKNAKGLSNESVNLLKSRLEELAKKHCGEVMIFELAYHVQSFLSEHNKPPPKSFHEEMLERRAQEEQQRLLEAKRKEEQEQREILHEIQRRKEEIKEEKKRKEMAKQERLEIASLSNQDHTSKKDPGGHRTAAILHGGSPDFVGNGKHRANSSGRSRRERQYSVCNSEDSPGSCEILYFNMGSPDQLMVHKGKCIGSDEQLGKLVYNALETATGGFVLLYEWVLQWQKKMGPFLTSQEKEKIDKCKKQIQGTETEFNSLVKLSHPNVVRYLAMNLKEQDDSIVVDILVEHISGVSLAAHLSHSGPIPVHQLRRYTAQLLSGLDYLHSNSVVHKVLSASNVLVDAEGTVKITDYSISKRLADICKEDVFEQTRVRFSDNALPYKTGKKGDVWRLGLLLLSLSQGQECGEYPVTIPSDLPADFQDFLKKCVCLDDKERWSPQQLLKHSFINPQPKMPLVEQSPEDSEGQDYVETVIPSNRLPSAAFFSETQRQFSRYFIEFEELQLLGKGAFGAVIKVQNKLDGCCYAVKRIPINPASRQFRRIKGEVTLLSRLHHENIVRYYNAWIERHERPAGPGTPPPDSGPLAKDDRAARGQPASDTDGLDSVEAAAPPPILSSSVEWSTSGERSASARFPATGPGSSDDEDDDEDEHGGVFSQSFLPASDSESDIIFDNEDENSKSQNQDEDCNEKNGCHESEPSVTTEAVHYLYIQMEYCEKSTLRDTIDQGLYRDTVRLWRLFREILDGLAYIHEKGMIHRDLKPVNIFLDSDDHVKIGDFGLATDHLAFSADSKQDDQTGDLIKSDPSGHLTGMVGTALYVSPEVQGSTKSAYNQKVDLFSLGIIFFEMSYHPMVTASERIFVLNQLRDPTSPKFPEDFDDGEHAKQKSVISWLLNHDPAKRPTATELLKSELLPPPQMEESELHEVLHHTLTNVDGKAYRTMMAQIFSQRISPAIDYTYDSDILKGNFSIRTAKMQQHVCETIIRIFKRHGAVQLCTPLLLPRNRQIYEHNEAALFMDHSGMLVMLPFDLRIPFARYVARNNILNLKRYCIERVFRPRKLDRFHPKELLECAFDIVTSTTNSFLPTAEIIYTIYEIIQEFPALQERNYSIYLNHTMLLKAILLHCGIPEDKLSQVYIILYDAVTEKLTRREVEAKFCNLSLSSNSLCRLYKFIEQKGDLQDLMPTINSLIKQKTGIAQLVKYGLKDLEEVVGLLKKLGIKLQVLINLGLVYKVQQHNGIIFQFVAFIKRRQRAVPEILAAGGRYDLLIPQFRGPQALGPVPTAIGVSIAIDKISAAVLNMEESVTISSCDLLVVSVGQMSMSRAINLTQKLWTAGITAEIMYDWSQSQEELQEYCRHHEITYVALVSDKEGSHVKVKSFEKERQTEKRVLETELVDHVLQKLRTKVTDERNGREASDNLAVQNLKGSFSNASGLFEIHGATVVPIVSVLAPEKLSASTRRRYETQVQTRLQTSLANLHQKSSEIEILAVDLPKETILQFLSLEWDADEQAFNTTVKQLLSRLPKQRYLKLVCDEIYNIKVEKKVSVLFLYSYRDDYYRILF

Row | IC50 | SMILES
1 | < 1000 nM | CCOc1ccc(-n2nnc3cnc(N[C@@H]4CC[C@H](C(N)=O)C4)nc32)cc1 [A149, (1S,3R)-3-[3-(4-ethoxy-phenyl)-3H-[1,2,3]triazolo[4,5-d]pyrimidin-5-ylamino]-cyclopentanecarboxylic acid amide]
2 | < 1000 nM | COc1ccc(-n2nnc3cnc(NC(C)C)nc32)cc1 [A2, Isopropyl-[3-(4-methoxy-phenyl)-3H-[1,2,3]triazolo[4,5-d]pyrimidin-5-yl]-amine]
3 | < 1000 nM | COc1ccc(-n2nnc3cnc(N[C@@H]4CCN(C(=O)CCN(C)C)C4)nc32)cc1 [A85, 3-dimethylamino-1-{(R)-3-[3-(4-methoxy-phenyl)-3H-[1,2,3]triazolo[4,5-d]-pyrimidin-5-ylamino]-pyrrolidin-1-yl}-propan-1-one formate]
4 | < 1000 nM | COc1ccc(-n2nnc3cnc(N[C@@H]4CCC[C@@H](O)C4)nc32)cc1 [A201, (1R,3R)-3-[3-(4-methoxy-phenyl)-3H-[1,2,3]triazolo[4,5-d]pyrimidin-5-ylamino]-cyclohexanol]
5 | 1000 to 5000 nM | COc1ccc(-n2nnc3cnc(NC4CCOCC4)nc32)cc1 [A3, [3-(4-methoxy-phenyl)-3H-[1,2,3]triazolo[4,5-d]pyrimidin-5-yl]-(tetrahydro-pyran-4-yl)-amine]
6 | < 1000 nM | NC(=O)[C@@H]1CC[C@@H](Nc2ncc3nnn(-c4ccc(-c5cnn(CCO)c5)cn4)c3n2)C1 [A261, (1R,3R)-3-(3-{5-[1-(2-hydroxy-ethyl)-1H-pyrazol-4-yl]-pyridin-2-yl}-3H-[1,2,3]triazolo[4,5-d]pyrimidin-5-ylamino)-cyclopentanecarboxylic acid amide]
7 | < 1000 nM | COc1ccc(-n2nnc3cnc(NC4CCCN(C(C)=O)C4)nc32)cc1 (stereo not shown) [A42, 1-{3-[3-(4-methoxy-phenyl)-3H-[1,2,3]triazolo[4,5-d]pyrimidin-5-ylamino]-piperidin-1-yl}-ethanone]
8 | < 1000 nM | COc1ccc(-n2nnc3cnc(N[C@H]4CC[C@H](SC)C4)nc32)cc1 (relative stereo) [A262, [3-(4-methoxy-phenyl)-3H-[1,2,3]triazolo[4,5-d]pyrimidin-5-yl]-((trans)-3-methylsulfanyl-cyclopentyl)-amine]
9 | 1000 to 5000 nM | COc1ccc(-n2nnc3cnc(NC4CC(=O)N(C)C4)nc32)cc1 (stereo not shown) [A20, 4-[3-(4-methoxy-phenyl)-3H-[1,2,3]triazolo[4,5-d]pyrimidin-5-ylamino]-1-methyl-pyrrolidin-2-one]
10 | 1000 to 5000 nM | COc1ccc(-n2nnc3cnc(NC4CCNC(=O)C4)nc32)cc1 (stereo not shown) [A87, 4-[3-(4-methoxy-phenyl)-3H-[1,2,3]triazolo[4,5-d]pyrimidin-5-ylamino]-piperidin-2-one]
11 | 1000 to 5000 nM | COc1ccc(-n2nnc3cnc(N[C@@H]4CCN(C(=O)OC(C)(C)C)C4)nc32)cc1 [A65, (R)-3-[3-(4-methoxy-phenyl)-3H-[1,2,3]triazolo[4,5-d]pyrimidin-5-ylamino]-pyrrolidine-1-carboxylic acid tert-butyl ester]
12 | < 1000 nM | CCOc1ccc(-n2nnc3cnc(NCCc4cnn(C)c4)nc32)cc1 [B7, [3-(4-ethoxy-phenyl)-3H-[1,2,3]triazolo[4,5-d]pyrimidin-5-yl]-[2-(1-methyl-1H-pyrazol-4-yl)-ethyl]-amine]
13 | 1000 to 5000 nM | COCCOc1ccc(-n2nnc3cnc(NCc4cnn(C)c4)nc32)cc1 [B6, {3-[4-(2-methoxy-ethoxy)-phenyl]-3H-[1,2,3]triazolo[4,5-d]pyrimidin-5-yl}-(1-methyl-1H-pyrazol-4-ylmethyl)-amine]
14 | < 1000 nM | O[C@@H]1CC[C@@H](Nc2ncc3nnn(-c4ccc(-c5cnn(Cc6cccnc6)c5)cc4)c3n2)C1 [A231, (1R,3R)-3-{3-[4-(1-pyridin-3-ylmethyl-1H-pyrazol-4-yl)-phenyl]-3H-[1,2,3]triazolo[4,5-d]pyrimidin-5-ylamino}-cyclopentanol]
15 | 1000 to 5000 nM | COc1ccc(-n2nnc3cnc(NCCN4CCN(C)CC4)nc32)cc1 [A50, [3-(4-methoxy-phenyl)-3H-[1,2,3]triazolo[4,5-d]pyrimidin-5-yl]-[2-(4-methyl-piperazin-1-yl)-ethyl]-amine]
16 | 1000 to 5000 nM | COc1ccc(-n2nnc3cnc(NCCOCCN)nc32)cc1 [A74, [2-(2-amino-ethoxy)-ethyl]-[3-(4-methoxy-phenyl)-3H-[1,2,3]triazolo[4,5-d]-pyrimidin-5-yl]-amine formate]
17 | < 1000 nM | COc1ccc(-n2nnc3cnc(N[C@H]4CC[C@H](CCO)CC4)nc32)cc1 [A72, trans-2-{4-[3-(4-methoxy-phenyl)-3H-[1,2,3]triazolo[4,5-d]pyrimidin-5-ylamino]-cyclohexyl}-ethanol]

Row | IC50 | SMILES
18 | < 1000 nM | COc1ccc(-n2nnc3cnc(NC4CCNCC4)nc32)cc1 [A40, [3-(4-methoxy-phenyl)-3H-[1,2,3]triazolo[4,5-d]pyrimidin-5-yl]-piperidin-4-yl-amine hydrochloride]
19 | < 1000 nM | COc1ccc(-n2nnc3cnc(NC4CCN(c5ccncc5)CC4)nc32)cc1 [A82, [3-(4-methoxy-phenyl)-3H-[1,2,3]triazolo[4,5-d]pyrimidin-5-yl]-(3,4,5,6-tetrahydro-2H-[1,4′]bipyridinyl-4-yl)-amine]
20 | < 1000 nM | CC(C)(O)c1ccc(-n2nnc3cnc(N[C@@H]4CC[C@@H](O)C4)nc32)cc1 (relative stereo) [A290, (trans)-3-{3-[4-(1-Hydroxy-1-methyl-ethyl)-phenyl]-3H-[1,2,3]triazolo[4,5-d]pyrimidin-5-ylamino}-cyclopentanol]
21 | 1000 to 5000 nM | COCCn1cc(-n2nnc3cnc(N[C@@H]4CCC[C@@H](C(N)=O)C4)nc32)cn1 (relative stereo) [A165, (trans)-3-{3-[1-(2-methoxy-ethyl)-1H-pyrazol-4-yl]-3H-[1,2,3]triazolo[4,5-d]pyrimidin-5-ylamino}-cyclohexanecarboxylic acid amide]
22 | < 1000 nM | COc1ccc(-n2nnc3cnc(NC(C)(C)C)nc32)cc1 [A7, tert-butyl-[3-(4-methoxy-phenyl)-3H-[1,2,3]triazolo[4,5-d]pyrimidin-5-yl]-amine]
23 | < 1000 nM | CCOc1ccc(-n2nnc3cnc(NCCc4cn[nH]c4)nc32)cc1 [B9, [3-(4-ethoxy-phenyl)-3H-[1,2,3]triazolo[4,5-d]pyrimidin-5-yl]-[2-(1H-pyrazol-4-yl)-ethyl]-amine]
24 | < 1000 nM | COc1ccc(-n2nnc3cnc(N[C@H]4CC[C@@H](CCO)CC4)nc32)cc1 [A73, cis-2-{4-[3-(4-methoxy-phenyl)-3H-[1,2,3]triazolo[4,5-d]pyrimidin-5-ylamino]-cyclohexyl}-ethanol]
25 | < 1000 nM | COc1ccc(-n2nnc3cnc(N[C@@H]4CCN(C(=O)CN(C)C)C4)nc32)cc1 [A83, 2-dimethylamino-1-{(R)-3-[3-(4-methoxy-phenyl)-3H-[1,2,3]triazolo[4,5-d]-pyrimidin-5-ylamino]-pyrrolidin-1-yl}-ethanone formate]
26 | 5000 to 10000 nM | COc1ccc(-n2nnc3cnc(N[C@H]4CCNC4)nc32)cc1 [A77, [3-(4-methoxy-phenyl)-3H-[1,2,3]triazolo[4,5-d]pyrimidin-5-yl]-(S)-pyrrolidin-3-yl-amine hydrochloride]
27 | < 1000 nM | CCOc1ccc(-n2nnc3cnc(N[C@H]4CC[C@H](n5ncccc5=O)C4)nc32)cc1 (relative stereo) [A287, 2-{(trans)-3-[3-(4-ethoxy-phenyl)-3H-[1,2,3]triazolo[4,5-d]-pyrimidin-5-ylamino]-cyclopentyl}-2H-pyridazin-3-one]
28 | 5000 to 10000 nM | COc1ccc(-n2nnc3cnc(NC4C5CN(C)CC54)nc32)cc1 (stereo not shown) [A19, [3-(4-methoxy-phenyl)-3H-[1,2,3]triazolo[4,5-d]pyrimidin-5-yl]-(3-methyl-3-aza-bicyclo[3.1.0]hex-6-yl)-amine]
29 | < 1000 nM | N[C@H]1CC[C@H](Nc2ncc3nnn(-c4ccc(N5CCCC5=O)cc4)c3n2)CC1 [A71, 1-{4-[5-((trans)-4-amino-cyclohexylamino)-[1,2,3]triazolo[4,5-d]pyrimidin-3-yl]-phenyl}-pyrrolidin-2-one]
30 | < 1000 nM | COCCn1cc(-c2ccc(-n3nnc4cnc(N[C@H]5CC[C@H](O)C5)nc43)cn2)cn1 (relative stereo) [A234, (trans)-3-(3-{6-[1-(2-methoxy-ethyl)-1H-pyrazol-4-yl]-pyridin-3-yl}-3H-[1,2,3]triazolo[4,5-d]pyrimidin-5-ylamino)-cyclopentanol]
31 | 1000 to 5000 nM | COc1ccc(-n2nnc3cnc(N[C@H]4CCN(C(=O)CN(C)C)C4)nc32)cc1 [A91, 2-dimethylamino-1-{(S)-3-[3-(4-methoxy-phenyl)-3H-[1,2,3]triazolo[4,5-d]-pyrimidin-5-ylamino]-pyrrolidin-1-yl}-ethanone formate]
32 | < 1000 nM | CCNc1ncc2nnn(-c3ccc(OC)cc3)c2n1 [A16, ethyl-[3-(4-methoxy-phenyl)-3H-[1,2,3]triazolo[4,5-d]pyrimidin-5-yl]-amine]
33 | < 1000 nM | COc1ccc(-n2nnc3cnc(N[C@@H]4CC[C@@H](C(=O)O)C4)nc32)cc1 [A139, (1R,3R)-3-[3-(4-methoxy-phenyl)-3H-[1,2,3]triazolo[4,5-d]pyrimidin-5-ylamino]-cyclopentanecarboxylic acid]
34 | < 1000 nM | NC(=O)CCn1cc(-c2ccc(-n3nnc4cnc(N[C@H]5CC[C@H](O)C5)nc43)cc2)cn1 (relative stereo) [A268, 3-(4-{4-[5-(trans-3-hydroxy-cyclopentylamino)-[1,2,3]triazolo[4,5-d]pyrimidin-3-yl]-phenyl}-pyrazol-1-yl)-propionamide]
